Test results: patent publication US8507509B2, “Saturated and insaturated bi- or tricyclic aryloxyacetamine derivatives and their use as fungicides” (Syngenta Crop Protection LLC, priority 2007, dated 2013)

Tests used:
[1] = system: Plasmopara viticola; experiment: Plasmopara viticola (downy mildew of grapevine), grapevine leaf disk assay, preventive; format: in vivo; details: foliar, 168 h, 200 ppm, grapevine leaf disks, assessed seven days after inoculation, read-out: control of fungal infection, Plasmopara viticola
[2] = system: Fusarium culmorum; experiment: Fusarium culmorum (root rot), liquid culture growth inhibition in nutrient broth; format: cell-based; details: PDB broth, 24 C, inhibition of growth determined photometrically after 48 hrs, read-out: control of fungal infection, Fusarium culmorum
Method: Mycelia fragments or conidia suspensions of a fungus, prepared either freshly from liquid cultures of the fungus or from cryogenic storage, are directly mixed into nutrient broth. DMSO solutions of the test compound (max. 10 mg/ml) is diluted with 0.025% Tween20 by factor 50 and 10 μl of this solution is pipetted into a microtiter plate (96-well format) and the nutrient broth containing the fungal spores/mycelia fragments is then added to give an end concentration of the tested compound. The test plates are incubated at 24° C. and 96% rH in the dark. The inhibition of fungal growth is determined photometrically after 2-6 days and antifungal activity is calculated.
Fusarium culmorum (root rot): Conidia of the fungus from cryogenic storage were directly mixed into nutrient broth (PDB potato dextrose broth). After placing a (DMSO) solution of the test compounds into a microtiter plate (96-well format) the nutrient broth containing the fungal spores was added. The test plates were incubated at 24 C and the inhibition of growth was determined photometrically after 48 hrs.

[3] = system: Septoria nodorum; experiment: Septoria nodorum (wheat glume blotch), wheat leaf segment assay, preventive; format: in vivo; details: Parastagonospora nodorum, foliar, 96 h; 200 ppm; wheat leaf segments; assessed four days after inoculation; read-out: control of fungal infection, Septoria nodorum
[4] = system: Erysiphe graminis f.sp. tritici; experiment: Erysiphe graminis f.sp. tritici (wheat powdery mildew), wheat leaf segment assay, preventive; format: in vivo; details: Blumeria graminis, foliar, 96 h; 200 ppm; wheat leaf segments; assessed four days after inoculation; read-out: control of fungal infection, Etysiphe graminis f.sp. tritici
[5] = system: Phytophthora infestans; experiment: whole plant or invertebrate; format: in vivo; details: in Solanum lycopersicum, foliar, 96 h, read-out: control of fungal infection, Phytophthora infestans
[6] = system: Pythium ultimum; experiment: Pythium ultimum (Damping off), liquid culture growth inhibition in potato dextrose broth; format: cell-based; details: Globisporangium ultimum; 20 ppm; potato dextrose broth, 24° C.; inhibition of growth determined photometrically after 48 hours; read-out: control of fungal infection, Pythium ultimum
[7] = system: Septoria tritici; experiment: Septoria tritici (leaf blotch), liquid culture growth inhibition in nutrient broth; format: cell-based; details: Zymoseptoria tritici; 200 ppm; PDB broth, 24 C; inhibition of growth determined photometrically after 72 hrs; read-out: control of fungal infection, Septoria tritici
[8] = system: Botrytis cinerea; experiment: Botrytis cinerea (grey mould), bean leaf disk assay, preventive; format: in vivo; details: foliar, 96 h, 200 ppm, bean leaf disks, assessed four days after inoculation, read-out: control of fungal infection, Botrytis cinerea

CSC(Oc1cc(C)c2ncc(Br)cc2c1)C(=O)NC(C)(C)C=NOc1ccccc1 (stereo not drawn) [Compound No. 23, 2-(3-Bromo-8-methyl-quinolin-6-yloxy)-N-(1,1-dimethyl-2-phenoxyimino-ethyl)-2-methylsulfanyl-acetamide]
≥ 60%: pest or weed control at 200 ppm [1] | inhibition of growth at 200 ppm [2] | pest or weed control at 200 ppm [3] | pest or weed control at 200 ppm [4] | pest or weed control at 200 ppm [5] | inhibition of growth at 20 ppm [6]

CON=CC(C)(C)NC(=O)C(Oc1cc(C)c2ncc(Br)cc2c1)SC (stereo not drawn) [Compound No. 26, 2-(3-Bromo-8-methyl-quinolin-6-yloxy)-N-(2-methoxyimino-1,1-dimethyl-ethyl)-2-methylsulfanyl-acetamide]
≥ 60%: inhibition of growth at 200 ppm [2] | pest or weed control at 200 ppm [3] | pest or weed control at 200 ppm [4] | pest or weed control at 200 ppm [5] | inhibition of growth at 200 ppm [7]

C#CCON=CC(C)(C)NC(=O)C(Oc1cc(C)c2ncc(Br)cc2c1)SC (stereo not drawn) [Compound No. 29, 2-(3-Bromo-8-methyl-quinolin-6-yloxy)-N-(1,1-dimethyl-2-prop-2-ynyloxyimino-ethyl)-2-methylsulfanyl-acetamide]
≥ 60%: pest or weed control at 200 ppm [1] | inhibition of growth at 200 ppm [2] | pest or weed control at 200 ppm [3] | pest or weed control at 200 ppm [4] | pest or weed control at 200 ppm [5] | inhibition of growth at 20 ppm [6]

CCON=CC(C)(C)NC(=O)C(Oc1cc(Br)c2ncc(Br)cc2c1)SC (stereo not drawn) [Compound No. 33, 2-(3,8-Dibromo-quinolin-6-yloxy)-N-(2-ethoxyimino-1,1-dimethyl-ethyl)-2-methylsulfanyl-acetamide]
≥ 60%: pest or weed control at 200 ppm [1] | pest or weed control at 200 ppm [8] | inhibition of growth at 200 ppm [7]

CCCCON=CCC(C)(C)NC(=O)C(Oc1cc(C)c2ncc(I)cc2c1)SC (stereo not drawn) [Compound No. 39, N-(3-Butoxyimino-1,1-dimethyl-propyl)-2-(3-iodo-8-methyl-quinolin-6-yloxy)-2-methylsulfanylacetamide]
≥ 60%: pest or weed control at 200 ppm [8] | inhibition of growth at 200 ppm [7]

C=CCON=CCC(C)(C)NC(=O)C(Oc1cc(C)c2ncc(I)cc2c1)SC (stereo not drawn) [Compound No. 40, N-(3-Allyloxyimino-1,1-dimethyl-propyl)-2-(3-iodo-8-methyl-quinolin-6-yloxy)-2-methylsulfanyl-acetamide]
≥ 60%: pest or weed control at 200 ppm [1] | pest or weed control at 200 ppm [8] | inhibition of growth at 200 ppm [7]

CON=CCC(C)NC(=O)C(Oc1ccc2ncc(I)cc2c1)SC (stereo not drawn) [Compound No. 48, 2-(3-Iodo-quinolin-6-yloxy)-N-(3-methoxyimino-1-methyl-propyl)-2-methylsulfanyl-acetamide]
≥ 60%: inhibition of growth at 200 ppm [2] | pest or weed control at 200 ppm [3] | pest or weed control at 200 ppm [4] | inhibition of growth at 200 ppm [7]

C=CCON=CC(C)(C)NC(=O)C(Oc1ccc2ncc(I)cc2c1)SC (stereo not drawn) [Compound No. 52, N-(2-Allyloxyimino-1,1-dimethyl-ethyl)-2-(3-iodo-quinolin-6-yloxy)-2-methylsulfanyl-acetamide]
≥ 60%: pest or weed control at 200 ppm [1] | inhibition of growth at 200 ppm [2] | pest or weed control at 200 ppm [5] | inhibition of growth at 20 ppm [6]

CON=CC(C)(C)NC(=O)C(Oc1cc(Cl)c2sccc2c1)SC (stereo not drawn) [Compound No. 83, 2-(7-Chloro-benzo[b]thiophen-5-yloxy)-N-(2-methoxyimino-1,1-dimethyl-ethyl)-2-methylsulfanyl-acetamide]
≥ 60%: pest or weed control at 200 ppm [1] | pest or weed control at 200 ppm [8] | inhibition of growth at 200 ppm [7]

CON=CC(C)(C)NC(=O)C(Oc1cc(C)c2sccc2c1)SC (stereo not drawn) [Compound No. 84, N-(2-methoxyimino-1,1-dimethyl-ethyl)-2-(7-methyl-benzo[b]thiophen-5-yloxy)-2-methylsulfanyl-acetamide]
≥ 60%: pest or weed control at 200 ppm [1] | pest or weed control at 200 ppm [8] | inhibition of growth at 200 ppm [7]

CON=CC(C)(C)NC(=O)C(Oc1cc(C)c2ccc(Br)cc2c1)SC (stereo not drawn) [Compound No. 85, 2-(7-bromo-4-methyl-naphthalen-2-yloxy)-N-(2-methoxyimino-1,1-dimethyl-ethyl)-2-methylsulfanyl-acetamide]
≥ 60%: pest or weed control at 200 ppm [4] | pest or weed control at 200 ppm [8] | inhibition of growth at 200 ppm [7]

CON=CCC(C)NC(=O)C(Oc1cc(C)c2ncc(I)cc2c1)SC (stereo not drawn) [Compound No. 105, 2-(3-Iodo-8-methyl-quinolin-6-yloxy)-N-(3-methoxyimino-1-methyl-propyl)-2-methylsulfanyl-acetamide]
≥ 60%: inhibition of growth at 200 ppm [2] | pest or weed control at 200 ppm [4] | inhibition of growth at 20 ppm [6] | inhibition of growth at 200 ppm [7]

CON=CC(C)(C)NC(=O)C(Oc1cc(Cl)c2ncc(I)cc2c1)SC (stereo not drawn) [Compound No. 106, 2-(8-Chloro-3-iodo-quinolin-6-yloxy)-N-(2-methoxyimino-1,1-dimethyl-ethyl)-2-methylsulfanyl-acetamide]
≥ 60%: pest or weed control at 200 ppm [1] | pest or weed control at 200 ppm [8] | inhibition of growth at 200 ppm [7]

C#Cc1cnc2c(C)cc(OC(SC)C(=O)NC(C)(C)C=NOC)cc2c1 (stereo not drawn) [Compound No. 112, 2-(3-Ethynyl-8-methyl-quinolin-6-yloxy)-N-(2-methoxyimino-1,1-dimethyl-ethyl)-2-methylsulfanyl-acetamide]
≥ 60%: pest or weed control at 200 ppm [1] | inhibition of growth at 200 ppm [2] | pest or weed control at 200 ppm [3] | pest or weed control at 200 ppm [5] | inhibition of growth at 20 ppm [6]

C#Cc1cnc2c(C)cc(OC(SC)C(=O)NC(C)(C)C=NOCC)cc2c1 (stereo not drawn) [Compound No. 113, N-(2-Ethoxyimino-1,1-dimethyl-ethyl)-2-(3-Ethynyl-8-methyl-quinolin-6-yloxy)-2-methylsulfanyl-acetamide]
≥ 60%: pest or weed control at 200 ppm [1] | inhibition of growth at 200 ppm [2] | pest or weed control at 200 ppm [3] | pest or weed control at 200 ppm [5] | inhibition of growth at 20 ppm [6]

C#Cc1cnc2c(C)cc(OC(SC)C(=O)NC(C)(C)C=NOCC=C)cc2c1 (stereo not drawn) [Compound No. 114, N-(2-Allyloxyimino-1,1-dimethyl-ethyl)-2-(3-Ethynyl-8-methyl-quinolin-6-yloxy)-2-methylsulfanyl-acetamide]
≥ 60%: pest or weed control at 200 ppm [1] | inhibition of growth at 200 ppm [2] | pest or weed control at 200 ppm [3] | pest or weed control at 200 ppm [4] | pest or weed control at 200 ppm [5]

C#Cc1cnc2c(Cl)cc(OC(SC)C(=O)NC(C)(C)C=NOC)cc2c1 (stereo not drawn) [Compound No. 115, 2-(8-Chloro-3-ethynyl-quinolin-6-yloxy)-N-(2-methoxyimino-1,1-dimethyl-ethyl)-2-methylsulfanyl-acetamide]
≥ 60%: pest or weed control at 200 ppm [1] | inhibition of growth at 200 ppm [2] | pest or weed control at 200 ppm [3] | pest or weed control at 200 ppm [4] | pest or weed control at 200 ppm [5] | inhibition of growth at 20 ppm [6]

CON=C(Cc1ccccc1)C(C)(C)NC(=O)C(Oc1ccc2ncc(Br)cc2c1)SC (stereo not drawn) [Compound No. 121, 2-(3-Bromo-quinolin-6-yloxy)-N-{2-[(E or Z)-methoxyimino]-1,1-dimethyl-3-phenyl-propyl}-2-methylsulfanyl-acetamide]
≥ 60%: pest or weed control at 200 ppm [1] | pest or weed control at 200 ppm [8] | inhibition of growth at 200 ppm [7]

CCON=C(Cc1ccccc1)C(C)(C)NC(=O)C(Oc1ccc2ncc(Br)cc2c1)SC (stereo not drawn) [Compound No. 122, 2-(3-Bromo-quinolin-6-yloxy)-N-{2-[(E or Z)-ethoxyimino]-1,1-dimethyl-3-phenyl-propyl}-2-methylsulfanyl-acetamide]
≥ 60%: pest or weed control at 200 ppm [1] | pest or weed control at 200 ppm [8] | inhibition of growth at 200 ppm [7]

C=CCON=C(Cc1ccccn1)C(C)(C)NC(=O)C(Oc1ccc2ncc(Br)cc2c1)SC (stereo not drawn) [Compound No. 129, N-{2-[(E or Z)-Allyloxyimino]-1,1-dimethyl-3-pyridin-2-yl-propyl}-2-(3-bromo-quinolin-6-yloxy)-2-methylsulfanyl-acetamide]
≥ 60%: pest or weed control at 200 ppm [8] | inhibition of growth at 200 ppm [7]

CSC(Oc1ccc2ncc(I)cc2c1)C(=O)NC(C)(C)C=NO (stereo not drawn) [Compound No. 153, N-(2-Hydroxyimino-1,1-dimethyl-ethyl)-2-(3-iodo-quinolin-6-yloxy)-2-methylsulfanyl-acetamide]
≥ 60%: pest or weed control at 200 ppm [1] | inhibition of growth at 200 ppm [2] | pest or weed control at 200 ppm [4] | pest or weed control at 200 ppm [5] | inhibition of growth at 20 ppm [6] | inhibition of growth at 200 ppm [7]
